Assay results taken from US20250262305A1 (Aegis Therapeutics, LLC, priority 2018, published 2025).
Read-outs that look alike come from different tables or passages of the source.

Key:
[1] = single 0.3 mg doses, intranasal and intramuscular; healthy volunteers
Protocol: Safety. […] Other safety measures included vital sign measurement. Objective evaluations of nasal irritation were assessed after each administration of study drug using a 6-point (0->5) score. […] Irritation was assessed by evaluating the degree of mucosal inflammation and bleeding. The subjects were required to report any incident of bleeding or inflammation in-between the actual evaluation time points.
The ends of the scale were defined as extreme limits of pain sensation: 0=no pain, 10=extreme pain. The subjects were asked to mark a point on the scale which best describes their intensity of pain and discomfort just prior to dosing (baseline) and at 15 (±2 min) and 30 (±5 min) minutes, and 1 (±10 min) hour post dose. The location of the marking at each time point was measured and noted as the reported score.

[2] = cited from earlier work; for Cbaseline: Mean ± SD
[3] = male, human, in vivo
Protocol: In the Screening Period, subjects underwent screening within 28 days prior to entering into the study.
(§1) Study Drugs and Administration.
(§2) Each 100 μL spray was administered to the left nostril via a commercially-available multiple dose nasal spray device marketed by Aptar Pharma. Priming of the device (activation 5 times) was done in a hood or priming box within 30 minutes prior to dosing the subject.
Participants. […] Plasma samples from all subjects that complete the study were analyzed.
(§3) Pharmacokinetic Analysis.

clinical = settings: human, in vivo, pH 4, tmax
Protocol: Study Design. A Phase 1, open-label, randomized, single-dose, two-treatment, crossover study was carried out that consisted of a screening period, baseline period, and an open-label treatment period. In the screening period, subjects underwent screening within 21 days prior to entering into the open-label treatment phase of the study.
Safety assessments were performed on each study day and subjects released after discharge assessments on Day 1. Subjects were followed for 6 hours after the administration of the last dose of study drug.
Plasma samples from all subjects that completed two periods of the study were analyzed. […] Actual sampling times were recorded.
as §1, §2, §3
Non-GCP pharmacokinetic analysis was performed using WinNonlin version 7.0. […] Baseline corrected Cmax was calculated from the uncorrected Cmax−PreDose concentration. Baseline corrected AUC0-t was calculated from the uncorrected AUC0-t−PreDose concentration×tlast. […] The point estimates and confidence limits will be exponentiated back to the original scale.

Question: What does the source list for `CNC[C@H](O)c1ccc(O)c(O)c1` [Epinephrine, (R)-4-(1-Hydroxy-2-(methylamino)ethyl)benzene-1,2-diol]?
Answer: adverse events [1]: no related adverse events reported; Cbaseline ([2]; Intramuscular (IM) 0.3 mg): 35 ± 23 pg/mL; Cbaseline ([2]; Intranasal (IN) 5 mg): 8 ± 6 pg/mL; clearance from the plasma ([2]; Srisawat's 5 mg intranasal formulation (FIG. 2)): cleared from the plasma almost entirely in about two hours; blood level of epinephrine ([2]; intranasal dose level of 2.5 mg and below): no blood level of epinephrine; systemic absorption of epinephrine via the IN route ([2]; intranasal, dose range of Srisawat (FIG. 1)): significant systemic absorption of epinephrine via the IN route was observed only at 5 mg; rate of absorption [3]: rapid, IM-injection-like rate of absorption in the first 20 minutes; Tmax (clinical): 53 min
